Data on four compounds can be found in patent US20260284074A1, “ENT1 Inhibitors in Combination with Checkpoint Inhibitors” (iTeos Belgium SA, priority 2023, published 2026).

Series [1] is described as follows: Dynamic vapor sorption (DVS). Format: physicochemical. How it is done: (§1) METHOD A: In Example 5, approximately 5-15 mg of sample was placed into a mesh vapor sorption balance pan and loaded into either a DVS Intrinsic or DVS Advantage dynamic vapor sorption balance by Surface Measurement Systems. The sample was subjected to a ramping profile from 40-90% relative humidity (RH) at 10% increments, maintaining the sample at each step until a stable weight had been achieved (dm/dt 0.004%, minimum step length 30 minutes, maximum step length 500 minutes) at 25° C. After completion of the sorption cycle, the sample was dried using the same procedure to 0% RH and then a second sorption cycle back to 40% RH was carried out. Two cycles were performed. The weight change during the sorption/desorption cycles were plotted, allowing the hygroscopic nature of the sample to be determined. XRPD analysis was then carried out on the residual solid.
as §1, with “B:” for “A:”, “1,” for “5,”, “10-20” for “5-15”, “determined.” for “determined. XRPD analysis was then carried out on the residual solid.”

Series [2] relates to human T cells. In words: [3H]adenosine uptake in activated human T cells. Type of series: cell-based. From the text: Applicant observed that activated human T cells took up [3H]adenosine, and this uptake was reduced in the presence of the selective ENT1 inhibitor dilazep, confirming that ENT1 is the dominant transporter involved in adenosine uptake in T cells.
Human T cells were activated for 2 days in the presence of Compound 1 or dilazep. The cells were then washed and used in a [^3H]adenosine uptake experiment. […] (See FIG. 27A.)

Series [3] relates to human T cells. In words: T cell proliferation by CFSE dilution in the presence of ATP. Type of series: cell-based. As to conditions: human T cells activated in presence of 100 μM ATP, CFSE dilution, read-out: IC50, restoration of T cell proliferation. How it is done: Human T cells were activated in the presence of 100 μM ATP and dilazep or Compound 1 and proliferation was monitored by CarboxyFluoroscein Succinimidyl Ester (CFSE) dilution. […] (See FIG. 27B.)

The test system of series [4] is MDA-MB-231 cells. In words: MDA-MB-231 subcutaneous tumor model in humanized NCG mice. Format: in vivo, mouse. The settings on record: day 51; Compound 1 30 mg/kg i.p. twice a day; nivolumab 10 mg/kg i.p. every 5 days. How it is done:
The anti-tumor therapeutic efficacy of Compound 1 monotherapy, nivolumab monotherapy, and Compound 1-nivolumab combination therapy was assessed in ‘humanized’ mice with subcutaneous tumors resulting from the subcutaneous injection of MDA-MB-231 cells, a human triple-negative breast cancer cell line.
Human cell line xenograft experiments were performed at Transcure (France) and all associated animal procedures were reviewed and approved by the local ethics committee. The experiment was carried out with the NOD-Prkdc^em26cd52Il2rg^em26cd22/NjuCrl immunodeficient mouse strain (NCG from Charles River Laboratories, Wilmington, MA, USA). Four-week-old immunodeficient NCG mice were engrafted with cord-blood-derived human CD34^+ hematopoietic stem and progenitor cells (French Blood Institute, Paris, France) 2 days after chemical myeloablative treatment. Fourteen weeks after cell injection, engraftment level was monitored with the analysis of human CD45^+ cells among total blood leukocytes by flow cytometry (Attune, Life Technologies/Thermo Fisher Scientific, Waltham, MA, USA). […]
All the animals used were monitored daily, checking their clinical signs of distress and body weight and tumors were measured three times a week using an electronic caliper. The tumor volume was determined by applying the formula Length×(Width)^2×0.5. […]

Consider `COc1cc(C(=O)O[C@@H]2CCCOc3cc(cc(OC)c3OC)C(=O)NCCCN3CCCN(CC2)CC3)cc(OC)c1OC` (single isomer, unassigned), for which the “Moisture uptake (DVS)” value in series [1] (RH raised to 80% from 10%, 25° C.) is given as 1.7%; in series [1] (between 0 and 10% RH, 25° C.) it was “about 6.3%”.

Take `COc1cc(C(=O)OCCCN2CCCN(CCCOC(=O)c3cc(OC)c(OC)c(OC)c3)CC2)cc(OC)c1OC` [dilazep]: the IC50 in series [2] (Homo sapiens, T-cell, T cells activated 2 days in presence of compound, washed, [3H]adenosine uptake, read-out: IC50, inhibition of uptake of adenosine into human T cells) came out at 1.2 nM; in series [3], 2.4 nM. For the same compound, the “[3H]adenosine uptake by activated human T cells” value in series [2] (in the presence of the inhibitor) was “reduced”.

On to “nivolumab [anti-PD-1, reference compound]”, for which the “Tumor volume compared with vehicle group” value in series [4] is on record as “not statistically significantly different”.

With `COc1cc(C(=O)O[C@@H]2CCCOc3cc(cc(OC)c3OC)C(=O)NCCCN3CCCN(CC2)CC3)cc(OC)c1OC`, the “Water uptake (DVS)” value in series [1] (at 80% RH, second sorption cycle, after likely formation of amorphous material) turned out to be 3.3%; in series [1] (between 40-80% RH, first sorption cycle), 0.9%; in series [1] (further uptake between 80-90% RH, first sorption cycle), 3.8%. Further, in series [1] (first sorption cycle, 25° C.), the “Hygroscopicity (DVS)” value is reported as “slightly hygroscopic”.
